Results taken from ChEMBL document CHEMBL1909046, “DrugMatrix in vitro pharmacology data”.

Target: T1, Cathepsin G (Homo sapiens, UniProt P08311);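 also: inhibition of Cathepsin G enzyme activity, tested on an AMC-conjugated peptide substrate; in other assays of this panel Not Active means under 50% inhibition at 10 µM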
T1 sequence (P08311 whole entry): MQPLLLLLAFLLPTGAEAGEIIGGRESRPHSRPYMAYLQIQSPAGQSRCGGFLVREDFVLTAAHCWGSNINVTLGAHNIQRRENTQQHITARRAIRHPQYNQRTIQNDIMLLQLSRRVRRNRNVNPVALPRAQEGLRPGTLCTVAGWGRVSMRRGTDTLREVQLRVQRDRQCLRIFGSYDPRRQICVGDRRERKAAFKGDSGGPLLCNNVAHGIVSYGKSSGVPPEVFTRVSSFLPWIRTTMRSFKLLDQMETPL
Experiment: not given
Assay type: tissue-based
Conditions: neutrophil

| Compound | IC50 |
| --- | --- |
| CC1COc2c(N3CCN(C)CC3)c(F)cc3c(=O)c(C(=O)O)cn1c23 (stereo not given) [OFLOXACIN] | Not Active |
| CC(=O)[C@@]1(O)CC[C@H]2[C@@H]3C[C@H](C)C4=CC(=O)C=C[C@]4(C)[C@@]3(F)[C@@H](O)C[C@@]21C [FLUOROMETHOLONE] | Not Active |

Target: T2, D(4) dopamine receptor (Homo sapiens, UniProt P21917)
T2 sequence (P21917 whole entry): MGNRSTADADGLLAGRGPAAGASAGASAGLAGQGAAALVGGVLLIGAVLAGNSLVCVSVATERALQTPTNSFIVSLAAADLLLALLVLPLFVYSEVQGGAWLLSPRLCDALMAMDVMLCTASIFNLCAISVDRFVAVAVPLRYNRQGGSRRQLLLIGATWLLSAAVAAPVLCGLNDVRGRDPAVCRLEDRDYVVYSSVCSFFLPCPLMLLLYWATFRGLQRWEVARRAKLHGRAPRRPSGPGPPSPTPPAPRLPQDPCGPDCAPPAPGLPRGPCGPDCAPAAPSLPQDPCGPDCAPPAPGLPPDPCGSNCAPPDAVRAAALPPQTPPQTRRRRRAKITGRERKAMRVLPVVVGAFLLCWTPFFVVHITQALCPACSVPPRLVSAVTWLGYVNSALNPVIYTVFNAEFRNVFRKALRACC
Experiment: DRUGMATRIX: Dopamine D4.2 radioligand binding (ligand: [3H] Spiperone)
Assay type: cell membranes, CHO-K1, Membrane
Conditions: cho-k1; Not Active = under 50% inhibition at 10 µM

| Compound | IC50 |
| --- | --- |
| CC1COc2c(N3CCN(C)CC3)c(F)cc3c(=O)c(C(=O)O)cn1c23 (stereo not given) [OFLOXACIN] | Not Active |
| CC(=O)[C@@]1(O)CC[C@H]2[C@@H]3C[C@H](C)C4=CC(=O)C=C[C@]4(C)[C@@]3(F)[C@@H](O)C[C@@]21C [FLUOROMETHOLONE] | Not Active |

Target: 5-hydroxytryptamine receptor 1B (Rattus norvegicus, UniProt P28564); also: in other assays of this panel Not Active means under 50% inhibition at 10 µM
Experiment: not given
Assay type: cell membranes, Wistar, Cerebral cortex, Membrane
Conditions: not given

Chain of 5-hydroxytryptamine receptor 1B (P28564 whole entry): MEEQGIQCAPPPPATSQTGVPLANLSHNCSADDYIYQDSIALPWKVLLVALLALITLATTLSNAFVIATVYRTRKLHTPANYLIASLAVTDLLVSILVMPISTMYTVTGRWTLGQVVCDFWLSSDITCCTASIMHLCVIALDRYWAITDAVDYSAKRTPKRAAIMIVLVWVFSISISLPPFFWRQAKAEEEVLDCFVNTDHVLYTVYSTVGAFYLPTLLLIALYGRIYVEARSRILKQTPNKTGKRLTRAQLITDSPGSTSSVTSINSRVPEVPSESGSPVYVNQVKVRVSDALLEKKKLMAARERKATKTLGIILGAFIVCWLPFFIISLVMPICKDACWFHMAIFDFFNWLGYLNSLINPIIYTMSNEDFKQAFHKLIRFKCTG

| Compound | IC50 |
| --- | --- |
| CC1COc2c(N3CCN(C)CC3)c(F)cc3c(=O)c(C(=O)O)cn1c23 (stereo not given) [OFLOXACIN] | Not Active |
| CC(=O)[C@@]1(O)CC[C@H]2[C@@H]3C[C@H](C)C4=CC(=O)C=C[C@]4(C)[C@@]3(F)[C@@H](O)C[C@@]21C [FLUOROMETHOLONE] | Not Active |

Target: T3, Cysteinyl leukotriene receptor 1 (Homo sapiens, UniProt Q9Y271); also: in other assays of this panel Not Active means under 50% inhibition at 10 µM
T3 sequence (Q9Y271 whole entry): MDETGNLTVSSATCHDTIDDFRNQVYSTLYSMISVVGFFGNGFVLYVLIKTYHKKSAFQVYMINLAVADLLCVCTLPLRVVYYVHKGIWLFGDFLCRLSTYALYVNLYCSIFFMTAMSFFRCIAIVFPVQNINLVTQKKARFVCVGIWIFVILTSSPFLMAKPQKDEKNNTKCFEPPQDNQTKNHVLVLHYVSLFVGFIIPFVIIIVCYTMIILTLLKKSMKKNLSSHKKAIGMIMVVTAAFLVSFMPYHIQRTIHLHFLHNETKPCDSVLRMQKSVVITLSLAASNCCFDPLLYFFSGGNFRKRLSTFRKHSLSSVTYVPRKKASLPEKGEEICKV
Experiment: not given
Assay type: cell membranes, CHO-K1, Membrane
Conditions: cho-k1

| Compound | IC50 |
| --- | --- |
| CC1COc2c(N3CCN(C)CC3)c(F)cc3c(=O)c(C(=O)O)cn1c23 (stereo not given) [OFLOXACIN] | Not Active |
| CC(=O)[C@@]1(O)CC[C@H]2[C@@H]3C[C@H](C)C4=CC(=O)C=C[C@]4(C)[C@@]3(F)[C@@H](O)C[C@@]21C [FLUOROMETHOLONE] | Not Active |

Target: Melanocortin receptor 5 (Homo sapiens, UniProt P33032); also: in other assays of this panel Not Active means under 50% inhibition at 10 µM
Experiment: not given
Assay type: cell membranes, HEK293, Membrane
Conditions: hek293

Chain of Melanocortin receptor 5 (P33032 whole entry): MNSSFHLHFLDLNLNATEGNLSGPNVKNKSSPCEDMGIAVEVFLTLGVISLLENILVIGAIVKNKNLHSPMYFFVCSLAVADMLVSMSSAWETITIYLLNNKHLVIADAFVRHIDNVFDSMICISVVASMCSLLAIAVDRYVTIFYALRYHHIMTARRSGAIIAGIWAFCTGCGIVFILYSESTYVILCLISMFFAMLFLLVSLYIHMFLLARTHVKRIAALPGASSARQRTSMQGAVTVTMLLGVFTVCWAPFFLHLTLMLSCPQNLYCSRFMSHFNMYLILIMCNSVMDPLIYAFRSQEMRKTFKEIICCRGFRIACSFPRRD

| Compound | IC50 |
| --- | --- |
| CC1COc2c(N3CCN(C)CC3)c(F)cc3c(=O)c(C(=O)O)cn1c23 (stereo not given) [OFLOXACIN] | Not Active |
| CC(=O)[C@@]1(O)CC[C@H]2[C@@H]3C[C@H](C)C4=CC(=O)C=C[C@]4(C)[C@@]3(F)[C@@H](O)C[C@@]21C [FLUOROMETHOLONE] | Not Active |

Target: T4, Caspase-1 (Homo sapiens, UniProt P29466)
T4 sequence (P29466 whole entry): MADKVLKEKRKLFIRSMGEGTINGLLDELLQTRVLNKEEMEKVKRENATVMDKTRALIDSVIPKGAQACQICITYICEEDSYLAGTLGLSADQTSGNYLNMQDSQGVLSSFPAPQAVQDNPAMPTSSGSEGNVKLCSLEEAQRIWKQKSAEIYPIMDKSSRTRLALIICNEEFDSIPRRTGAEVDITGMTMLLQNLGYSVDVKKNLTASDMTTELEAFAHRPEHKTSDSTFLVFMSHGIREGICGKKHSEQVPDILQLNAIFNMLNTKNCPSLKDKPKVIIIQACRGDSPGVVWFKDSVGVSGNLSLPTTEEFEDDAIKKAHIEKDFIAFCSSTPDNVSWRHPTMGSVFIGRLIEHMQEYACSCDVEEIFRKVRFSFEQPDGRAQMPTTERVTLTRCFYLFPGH
Experiment: not given
Design: species or system Escherichia coli
Conditions: not given

| Compound | IC50 |
| --- | --- |
| CC1COc2c(N3CCN(C)CC3)c(F)cc3c(=O)c(C(=O)O)cn1c23 (stereo not given) [OFLOXACIN] | Not Active |
| CC(=O)[C@@]1(O)CC[C@H]2[C@@H]3C[C@H](C)C4=CC(=O)C=C[C@]4(C)[C@@]3(F)[C@@H](O)C[C@@]21C [FLUOROMETHOLONE] | Not Active |

Target: Beta-1 adrenergic receptor (Homo sapiens, UniProt P08588)
Experiment: DRUGMATRIX: Adrenergic beta1 radioligand binding (ligand: [125I] Cyanopindolol)
Assay type: cell membranes, CHO-K1, Membrane
Conditions: cho-k1; Not Active = under 50% inhibition at 10 µM

Chain of Beta-1 adrenergic receptor (P08588 whole entry): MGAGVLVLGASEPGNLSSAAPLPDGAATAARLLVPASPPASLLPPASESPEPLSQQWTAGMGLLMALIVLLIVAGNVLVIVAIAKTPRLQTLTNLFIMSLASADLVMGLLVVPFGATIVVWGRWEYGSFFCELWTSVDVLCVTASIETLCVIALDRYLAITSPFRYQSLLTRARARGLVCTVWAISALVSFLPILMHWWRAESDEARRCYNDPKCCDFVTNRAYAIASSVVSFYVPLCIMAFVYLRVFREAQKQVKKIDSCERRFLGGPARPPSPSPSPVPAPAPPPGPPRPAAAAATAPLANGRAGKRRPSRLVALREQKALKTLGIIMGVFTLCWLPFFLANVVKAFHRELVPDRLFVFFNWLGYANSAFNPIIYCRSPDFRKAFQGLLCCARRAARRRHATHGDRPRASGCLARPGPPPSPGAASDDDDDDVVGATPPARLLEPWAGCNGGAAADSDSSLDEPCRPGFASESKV

| Compound | IC50 |
| --- | --- |
| CC1COc2c(N3CCN(C)CC3)c(F)cc3c(=O)c(C(=O)O)cn1c23 (stereo not given) [OFLOXACIN] | Not Active |
| CC(=O)[C@@]1(O)CC[C@H]2[C@@H]3C[C@H](C)C4=CC(=O)C=C[C@]4(C)[C@@]3(F)[C@@H](O)C[C@@]21C [FLUOROMETHOLONE] | Not Active |

Target: Mu-type opioid receptor (Homo sapiens, UniProt P35372)
Experiment: DRUGMATRIX: Opiate mu (OP3, MOP) radioligand binding (ligand: [3H] Diprenorphine)
Assay type: cell membranes, CHO-K1, Membrane
Conditions: cho-k1; Not Active = under 50% inhibition at 10 µM

Chain of Mu-type opioid receptor (P35372 whole entry): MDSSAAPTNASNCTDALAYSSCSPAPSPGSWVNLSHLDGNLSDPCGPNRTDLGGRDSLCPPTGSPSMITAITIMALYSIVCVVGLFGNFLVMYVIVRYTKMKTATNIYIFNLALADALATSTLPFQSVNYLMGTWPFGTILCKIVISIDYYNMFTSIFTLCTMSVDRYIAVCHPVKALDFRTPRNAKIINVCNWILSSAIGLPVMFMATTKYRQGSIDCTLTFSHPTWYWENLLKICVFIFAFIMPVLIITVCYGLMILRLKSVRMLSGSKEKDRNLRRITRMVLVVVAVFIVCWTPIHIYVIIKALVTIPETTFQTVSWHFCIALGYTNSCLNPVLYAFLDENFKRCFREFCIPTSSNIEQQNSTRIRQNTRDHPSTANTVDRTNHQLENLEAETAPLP

| Compound | IC50 |
| --- | --- |
| CC1COc2c(N3CCN(C)CC3)c(F)cc3c(=O)c(C(=O)O)cn1c23 (stereo not given) [OFLOXACIN] | Not Active |
| CC(=O)[C@@]1(O)CC[C@H]2[C@@H]3C[C@H](C)C4=CC(=O)C=C[C@]4(C)[C@@]3(F)[C@@H](O)C[C@@]21C [FLUOROMETHOLONE] | Not Active |

Tested on: not listed separately
Experiment: DRUGMATRIX: Purinergic P2X radioligand binding (ligand: [3H] alpha, beta-Methylene-ATP)
Assay type: cell membranes, Oryctolagus cuniculus, New Zealand albino, Urinary bladder, Membrane
Conditions: Not Active = under 50% inhibition at 10 µM

| Compound | IC50 | Ki |
| --- | --- | --- |
| CC1COc2c(N3CCN(C)CC3)c(F)cc3c(=O)c(C(=O)O)cn1c23 (stereo not given) [OFLOXACIN] | Not Active | Not Active |
| CC(=O)[C@@]1(O)CC[C@H]2[C@@H]3C[C@H](C)C4=CC(=O)C=C[C@]4(C)[C@@]3(F)[C@@H](O)C[C@@]21C [FLUOROMETHOLONE] | Not Active | Not Active |

Tested on: not listed separately
Experiment: DRUGMATRIX: Leukotriene, BLT (LTB4) radioligand binding (ligand: [3H]LTB4)
Assay type: cell membranes, Membrane
Conditions: u-937; Not Active = under 50% inhibition at 10 µM

| Compound | IC50 | Ki |
| --- | --- | --- |
| CC1COc2c(N3CCN(C)CC3)c(F)cc3c(=O)c(C(=O)O)cn1c23 (stereo not given) [OFLOXACIN] | Not Active | Not Active |
| CC(=O)[C@@]1(O)CC[C@H]2[C@@H]3C[C@H](C)C4=CC(=O)C=C[C@]4(C)[C@@]3(F)[C@@H](O)C[C@@]21C [FLUOROMETHOLONE] | Not Active | Not Active |

Tested on: not listed separately
Experiment: DRUGMATRIX: beta-Lactamase enzyme inhibition (substrate: Nitrocefin)
Design: species or system Bacillus cereus
Conditions: Not Active = under 50% inhibition at 10 µM

| Compound | IC50 | Ki |
| --- | --- | --- |
| CC1COc2c(N3CCN(C)CC3)c(F)cc3c(=O)c(C(=O)O)cn1c23 (stereo not given) [OFLOXACIN] | Not Active | Not Active |
| CC(=O)[C@@]1(O)CC[C@H]2[C@@H]3C[C@H](C)C4=CC(=O)C=C[C@]4(C)[C@@]3(F)[C@@H](O)C[C@@]21C [FLUOROMETHOLONE] | Not Active | Not Active |

Tested on: not listed separately
Experiment: DRUGMATRIX: Sigma2 radioligand binding (ligand: [3H] Ifenprodil)
Assay type: cell membranes, Rattus norvegicus, Wistar, Brain, Membrane
Conditions: Not Active = under 50% inhibition at 10 µM

| Compound | IC50 | Ki |
| --- | --- | --- |
| CC1COc2c(N3CCN(C)CC3)c(F)cc3c(=O)c(C(=O)O)cn1c23 (stereo not given) [OFLOXACIN] | Not Active | Not Active |
| CC(=O)[C@@]1(O)CC[C@H]2[C@@H]3C[C@H](C)C4=CC(=O)C=C[C@]4(C)[C@@]3(F)[C@@H](O)C[C@@]21C [FLUOROMETHOLONE] | Not Active | Not Active |

Target: Epidermal growth factor receptor (Homo sapiens, UniProt P00533)
Experiment: DRUGMATRIX: Protein Tyrosine Kinase, EGF Receptor enzyme inhibition (substrate: Poly(Glu:Tyr))
Assay type: cell-based, Insect cells
Conditions: insect cells; Not Active = under 50% inhibition at 10 µM

Chain of Epidermal growth factor receptor (P00533 whole entry): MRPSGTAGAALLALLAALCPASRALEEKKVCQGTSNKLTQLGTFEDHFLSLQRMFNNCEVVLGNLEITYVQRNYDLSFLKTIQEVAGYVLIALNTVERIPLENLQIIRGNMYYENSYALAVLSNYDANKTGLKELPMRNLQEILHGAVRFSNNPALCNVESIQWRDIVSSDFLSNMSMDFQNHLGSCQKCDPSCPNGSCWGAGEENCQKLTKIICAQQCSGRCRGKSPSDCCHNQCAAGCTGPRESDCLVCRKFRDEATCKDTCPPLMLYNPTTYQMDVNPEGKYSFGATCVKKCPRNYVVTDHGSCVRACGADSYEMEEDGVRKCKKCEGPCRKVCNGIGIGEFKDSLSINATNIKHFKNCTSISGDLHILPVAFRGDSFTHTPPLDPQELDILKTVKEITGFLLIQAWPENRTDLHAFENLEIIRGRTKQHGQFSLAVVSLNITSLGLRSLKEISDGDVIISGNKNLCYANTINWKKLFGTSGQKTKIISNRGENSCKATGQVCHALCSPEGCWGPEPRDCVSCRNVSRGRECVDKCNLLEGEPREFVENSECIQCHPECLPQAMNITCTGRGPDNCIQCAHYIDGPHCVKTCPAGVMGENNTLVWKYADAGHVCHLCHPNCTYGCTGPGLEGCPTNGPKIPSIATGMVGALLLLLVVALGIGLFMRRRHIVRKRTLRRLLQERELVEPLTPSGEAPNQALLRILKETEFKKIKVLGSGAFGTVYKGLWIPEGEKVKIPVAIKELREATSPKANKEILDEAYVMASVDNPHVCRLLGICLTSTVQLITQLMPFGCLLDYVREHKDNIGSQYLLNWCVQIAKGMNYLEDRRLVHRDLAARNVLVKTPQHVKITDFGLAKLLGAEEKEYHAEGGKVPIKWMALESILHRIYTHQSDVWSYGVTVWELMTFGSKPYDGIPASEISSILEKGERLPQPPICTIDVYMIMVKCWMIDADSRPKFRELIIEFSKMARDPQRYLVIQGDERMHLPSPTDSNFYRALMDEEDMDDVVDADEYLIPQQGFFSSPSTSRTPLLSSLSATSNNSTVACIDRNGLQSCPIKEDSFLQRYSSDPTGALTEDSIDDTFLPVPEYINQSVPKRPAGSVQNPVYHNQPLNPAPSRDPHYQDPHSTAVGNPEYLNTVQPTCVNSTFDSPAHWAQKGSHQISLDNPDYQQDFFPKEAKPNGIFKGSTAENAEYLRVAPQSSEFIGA

| Compound | IC50 |
| --- | --- |
| CC1COc2c(N3CCN(C)CC3)c(F)cc3c(=O)c(C(=O)O)cn1c23 (stereo not given) [OFLOXACIN] | Not Active |
| CC(=O)[C@@]1(O)CC[C@H]2[C@@H]3C[C@H](C)C4=CC(=O)C=C[C@]4(C)[C@@]3(F)[C@@H](O)C[C@@]21C [FLUOROMETHOLONE] | Not Active |

Target: T5, 5-hydroxytryptamine receptor 2C (Homo sapiens, UniProt P28335)
T5 sequence (P28335 whole entry): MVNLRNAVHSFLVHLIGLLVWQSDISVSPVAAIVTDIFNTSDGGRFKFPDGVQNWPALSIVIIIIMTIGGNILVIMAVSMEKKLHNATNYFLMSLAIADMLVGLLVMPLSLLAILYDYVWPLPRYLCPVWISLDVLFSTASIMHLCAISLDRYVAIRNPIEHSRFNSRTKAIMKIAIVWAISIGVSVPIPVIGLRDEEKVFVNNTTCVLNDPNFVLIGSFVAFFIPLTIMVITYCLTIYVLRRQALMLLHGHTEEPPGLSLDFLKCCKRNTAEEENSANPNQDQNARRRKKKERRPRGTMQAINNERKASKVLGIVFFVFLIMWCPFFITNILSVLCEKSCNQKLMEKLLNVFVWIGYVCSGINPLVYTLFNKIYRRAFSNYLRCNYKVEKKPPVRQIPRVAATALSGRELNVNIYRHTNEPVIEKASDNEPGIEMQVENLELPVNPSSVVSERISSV
Experiment: DRUGMATRIX: Serotonin (5-Hydroxytryptamine) 5-HT2C radioligand binding (ligand: [3H] Mesulergine)
Assay type: cell membranes, CHO-K1, Membrane
Conditions: cho-k1; Not Active = under 50% inhibition at 10 µM

| Compound | IC50 |
| --- | --- |
| CC1COc2c(N3CCN(C)CC3)c(F)cc3c(=O)c(C(=O)O)cn1c23 (stereo not given) [OFLOXACIN] | Not Active |
| CC(=O)[C@@]1(O)CC[C@H]2[C@@H]3C[C@H](C)C4=CC(=O)C=C[C@]4(C)[C@@]3(F)[C@@H](O)C[C@@]21C [FLUOROMETHOLONE] | Not Active |

Target: Melanocortin receptor 4 (Homo sapiens, UniProt P32245); also: in other assays of this panel Not Active means under 50% inhibition at 10 µM
Experiment: not given
Assay type: cell membranes, Membrane
Conditions: hek293

Chain of Melanocortin receptor 4 (P32245 whole entry): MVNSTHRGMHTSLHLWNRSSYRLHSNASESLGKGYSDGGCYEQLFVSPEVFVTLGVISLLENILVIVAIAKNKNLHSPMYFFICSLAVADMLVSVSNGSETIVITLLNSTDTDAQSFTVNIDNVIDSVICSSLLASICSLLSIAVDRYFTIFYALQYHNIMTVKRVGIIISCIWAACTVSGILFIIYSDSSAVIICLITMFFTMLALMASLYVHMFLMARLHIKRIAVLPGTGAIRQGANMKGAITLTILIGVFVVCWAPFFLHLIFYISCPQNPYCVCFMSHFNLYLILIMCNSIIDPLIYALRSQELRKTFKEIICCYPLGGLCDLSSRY

| Compound | IC50 |
| --- | --- |
| CC1COc2c(N3CCN(C)CC3)c(F)cc3c(=O)c(C(=O)O)cn1c23 (stereo not given) [OFLOXACIN] | Not Active |
| CC(=O)[C@@]1(O)CC[C@H]2[C@@H]3C[C@H](C)C4=CC(=O)C=C[C@]4(C)[C@@]3(F)[C@@H](O)C[C@@]21C [FLUOROMETHOLONE] | Not Active |

Target: Tyrosine-protein kinase Fyn (Homo sapiens, UniProt P06241)
Experiment: biochemical
Assay type: cell-based, Insect cells
Conditions: insect cells

Chain of Tyrosine-protein kinase Fyn (P06241 whole entry): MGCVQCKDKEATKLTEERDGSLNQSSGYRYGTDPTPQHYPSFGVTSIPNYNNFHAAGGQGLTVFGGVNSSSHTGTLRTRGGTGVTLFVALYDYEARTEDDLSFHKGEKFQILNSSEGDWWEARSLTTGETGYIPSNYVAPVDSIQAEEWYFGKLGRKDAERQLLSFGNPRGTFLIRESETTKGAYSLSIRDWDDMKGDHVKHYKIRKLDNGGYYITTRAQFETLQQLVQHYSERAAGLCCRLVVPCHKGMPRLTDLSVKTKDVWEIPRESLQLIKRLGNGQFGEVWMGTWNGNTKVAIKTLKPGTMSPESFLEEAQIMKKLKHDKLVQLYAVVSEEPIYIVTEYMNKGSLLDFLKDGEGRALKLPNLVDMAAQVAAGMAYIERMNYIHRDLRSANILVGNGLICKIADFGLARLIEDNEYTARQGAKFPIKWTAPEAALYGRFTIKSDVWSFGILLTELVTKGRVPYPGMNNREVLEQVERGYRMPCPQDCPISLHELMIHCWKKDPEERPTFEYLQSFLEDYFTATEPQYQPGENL

| Compound | IC50 |
| --- | --- |
| CC1COc2c(N3CCN(C)CC3)c(F)cc3c(=O)c(C(=O)O)cn1c23 (stereo not given) [OFLOXACIN] | Not Active |
| CC(=O)[C@@]1(O)CC[C@H]2[C@@H]3C[C@H](C)C4=CC(=O)C=C[C@]4(C)[C@@]3(F)[C@@H](O)C[C@@]21C [FLUOROMETHOLONE] | Not Active |
